The source made the active and inactive calls. The calls are words filed in the database; no cut-off is given here.
Assays:
[1] = molecular target: T1, Proteasome Macropain subunit MB1 (Homo sapiens, UniProt P28074); test: Inhibition of Beta5 in human 20S […] usingAc-WLA-AMC as substrate after 1 hr by fluorescence based microplate reader analysis
T1 sequence (P28074 whole entry): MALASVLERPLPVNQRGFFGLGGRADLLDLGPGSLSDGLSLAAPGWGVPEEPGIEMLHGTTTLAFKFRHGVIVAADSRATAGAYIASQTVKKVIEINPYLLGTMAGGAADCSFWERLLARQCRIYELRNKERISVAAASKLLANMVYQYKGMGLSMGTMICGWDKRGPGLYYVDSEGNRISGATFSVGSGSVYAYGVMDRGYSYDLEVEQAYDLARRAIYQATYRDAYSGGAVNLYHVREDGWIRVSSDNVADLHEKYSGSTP

[2] = Inhibition of LMP7/Beta 5 subunit chymotrypsin-like activity in human RPM18226 cell lysates using Suc-LLVY-AMC as substrate after 1 hr by fluorescence based microplate reader analysis; assay type: cell-free; settings: rpmi-8226
[3] = molecular target: T2, Proteasome subunit beta type-9 (Homo sapiens, UniProt P28065); test: Inhibition of LMP2 in human 20S immunoproteasome using Ac-PAL-AMC as substrate after 1 hr by fluorescence based microplate reader analysis
T2 sequence (P28065 whole entry): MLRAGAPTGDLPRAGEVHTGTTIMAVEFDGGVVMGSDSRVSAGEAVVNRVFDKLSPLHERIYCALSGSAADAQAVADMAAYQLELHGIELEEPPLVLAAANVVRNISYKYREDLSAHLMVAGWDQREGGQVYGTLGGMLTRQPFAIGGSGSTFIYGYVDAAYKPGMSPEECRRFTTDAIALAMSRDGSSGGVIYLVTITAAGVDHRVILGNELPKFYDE

[4] = molecular target: T3, Proteasome subunit beta type-9 (Homo sapiens) (UniProt P28065); test: Inhibition of immunoproteasome LMP2 subunit in human DLD1 cells over expressing ABCB1 at 3 uM using Ac-PAL-AMC as substrate incubated for 4 hrs in presence of reversin-121; assay type: cell-based; settings: DLD-1
T3 sequence (whole entry): T2 sequence (P28065 whole entry)

[5] = test system: RPMI-8226; test: Cytotoxicity against human RPM18226 cells up to 10 uM after 72 hrs by CellTiter 96 aqueous one solution reagent based assay; assay type: cell-based; settings: rpmi-8226, 72 h
[6] = test system: Mus musculus; test: Antialzheimer activity in transgenic Tg2576 ICR mouse at 10 mg/kg, iv administered twice per week for 3 weeks by Morris water maze test; assay type: functional, organism-based
[7] = test system: BV-2; test: Cytotoxicity against mouse BV2 cells up to 10 uM after 72 hrs by CellTiter 96 aqueous one solution reagent based assay; assay type: cell-based; settings: bv-2, 72 h
[8] = molecular target: T3, Proteasome subunit beta type-9 (Homo sapiens); test: Inhibition of LMP2 subunit in human DLD1 cells over expressing ABCB1 at 1 uM using Ac-PAL-AMC as substrate incubated for 4 hrs; assay type: cell-based; settings: DLD-1
[9] = molecular target: T4, Proteasome subunit beta type-8 (Homo sapiens, UniProt P28062); test: Inhibition of LMP7 in human 20S immunoproteasome using Ac-ANW-AMC as substrate after 1 hr by fluorescence based microplate reader analysis
T4 sequence (P28062 whole entry): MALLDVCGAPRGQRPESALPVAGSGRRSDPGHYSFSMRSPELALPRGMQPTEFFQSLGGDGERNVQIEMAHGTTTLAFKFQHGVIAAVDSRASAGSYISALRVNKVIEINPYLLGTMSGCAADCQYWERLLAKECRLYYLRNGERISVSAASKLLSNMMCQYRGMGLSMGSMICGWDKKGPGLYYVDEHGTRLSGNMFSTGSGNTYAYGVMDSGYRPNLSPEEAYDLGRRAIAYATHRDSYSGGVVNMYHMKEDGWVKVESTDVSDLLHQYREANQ

[10] = Toxicity in transgenic Tg2576 ICR mouse at 10 mg/kg, iv administered twice per week for 3 weeks; assay type: organism-based; settings: in vivo, 504 h
[11] = test system: BV-2; test: Antiinflammatory activity against mouse BV2 cells assessed as reduction in LPS-induced IL-1alpha release after 24 hrs by ELISA; assay type: functional, cell-based
[12] = test system: WI-38; test: Cytotoxicity against human WI38 cells up to 10 uM after 72 hrs by CellTiter 96 aqueous one solution reagent based assay; assay type: cell-based; settings: wi-38, 72 h
[13] = test system: Mus musculus; test: Antialzheimer activity in transgenic Tg2576 ICR mouse assessed as reduction in IL-1alpha level in serum at 10 mg/kg, iv administered twice per week for 3 weeks by ELISA; assay type: functional, organism-based
[14] = test system: Mus musculus; test: Antineuroinflammatory activity in APP transgenic Tg2576 mouse assessed as inhibition of retinal pigment epithelium degeneration at 10 mg/kg, iv administered twice per week for 3 weeks by immuno staining based confocal microscopic analysis relative to control; assay type: functional; design: scale not given: the % may be the effect or the level left
[15] = molecular target: T3, Proteasome subunit beta type-9 (Homo sapiens); test: Inhibition of LMP2 in human ARPE-19 cells assessed as suppression of TNFalpha-stimulated EMT by measuring vimentin expression after 24 hrs by immunofluorescence analysis; assay type: cell-based
[16] = molecular target: T3, Proteasome subunit beta type-9 (Homo sapiens); test: Inhibition of LMP2 in human ARPE-19 cells assessed as suppression of TNFalpha-stimulated EMT by measuring E-cadherin expression after 24 hrs by immunofluorescence analysis; assay type: cell-based

With `CC(C)C[C@H](NC(=O)[C@H](Cc1ccccc1)NC(=O)[C@@H]1CCCN1C(=O)CNC(=O)c1cnccn1)C(=O)[C@@]1(C)CO1` the IC50 [1] was greater than 10 µM, the IC50 [2] was greater than 10 µM and the IC50 [3] was 0.07 to 0.0806 µM. The inhibition [4] was “Active”, the Activity [5] was “Non-Toxic” and the Activity [6] was “Active”. For the same compound, the Activity [7] was “Non-Toxic”, the inhibition [8] was “Active” and the IC50 [9] was greater than 10 µM. For the same compound, the Activity [10] was “Non-Toxic”, the Activity [11] was “Active” and the Activity [12] was “Non-Toxic”. The Activity [13] was “Active”, the Activity [14] was 100% and the inhibition [15] was “Active”. The inhibition [16] was “Active”.

From ChEMBL document CHEMBL4602696, “LMP2 Inhibitors as a Potential Treatment for Alzheimer's Disease” (J Med Chem, 2020)
